Test results as given in US11759462B2, “Spirocyclic compounds as tryptophan hydroxylase inhibitors” (priority 2013, dated 2023).

Molecular target: T1, Recombinant human TPH1 (MBP tagged) (Homo sapiens, UniProt P17752)
T1 construct: cloning full length human TPH1 cDNA in to a bacterial pMAL-c5E expression vector; made in house; host or cells: E. coli BL21 (DE3)
T1 sequence (P17752 1-444): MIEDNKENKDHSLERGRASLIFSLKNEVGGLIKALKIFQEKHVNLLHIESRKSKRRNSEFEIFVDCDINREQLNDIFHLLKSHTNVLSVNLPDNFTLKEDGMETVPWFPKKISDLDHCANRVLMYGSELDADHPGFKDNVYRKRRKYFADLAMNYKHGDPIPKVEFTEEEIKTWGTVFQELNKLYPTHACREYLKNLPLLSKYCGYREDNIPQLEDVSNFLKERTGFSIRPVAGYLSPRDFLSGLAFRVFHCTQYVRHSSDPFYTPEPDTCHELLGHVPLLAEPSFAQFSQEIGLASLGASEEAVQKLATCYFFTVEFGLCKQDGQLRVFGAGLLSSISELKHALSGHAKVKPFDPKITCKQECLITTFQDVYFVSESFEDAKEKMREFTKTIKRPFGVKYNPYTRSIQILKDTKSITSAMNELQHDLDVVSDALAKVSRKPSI
Assay: TPH1 in vitro inhibition assay (kinetic fluorescence)
Assay type: biochemical
Conditions: read-out: TPH1 Range (TPH1 inhibition IC50)
How it was run: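 Final mix: 15 nM MBP-TPH1, 30 μM Trp, 36 μM 6-methyltetrahydropterin, 25 μM ferrous ammonium sulfate, 50 mM MES pH 7.1, 1% DMSO, room temperature.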

| IC50 | SMILES |
| --- | --- |
| 300 to 3000 nM | Nc1nc(O[C@H](c2ccc(-c3ccc(F)c(F)c3)cc2)C(F)(F)F)cc(N2CCC3(CC2)CN[C@H](C(=O)O)C3)n1 [Example 55cr, (S)-8-(2-amino-6-((R)-1-(3′,4′-difluoro-[1,1′-biphenyl]-4-yl)-2,2,2-trifluoroethoxy)pyrimidin-4-yl)-2,8-diazaspiro[4.5]decane-3-carboxylic acid] |
| 50 to 300 nM | Cc1c[nH]c2ccc(-c3ccc([C@@H](Oc4cc(N5CCC6(CC5)CN[C@H](C(=O)O)C6)nc(N)n4)C(F)(F)F)cc3)cc12 [Example 55ac, (S)-8-(2-amino-6-((R)-2,2,2-trifluoro-1-(4-(3-methyl-1H-indol-5-yl)phenyl)ethoxy)pyrimidin-4-yl)-2,8-diazaspiro[4.5]decane-3-carboxylic acid] |
| 50 to 300 nM | Cn1c(=O)ccc2cc(-c3ccc([C@@H](Oc4cc(N5CCC6(CC5)CN[C@H](C(=O)O)C6)nc(N)n4)C(F)(F)F)cc3)ccc21 [Example 55u, (S)-8-(2-amino-6-((R)-2,2,2-trifluoro-1-(4-(1-methyl-2-oxo-1,2-dihydroquinolin-6-yl)phenyl)ethoxy)pyrimidin-4-yl)-2,8-diazaspiro[4.5]decane-3-carboxylic acid] |
| < 50 nM | Cc1ccn(-c2cc(-c3cc(C)c(Cl)c(C)c3)ccc2[C@@H](Oc2cc(N3CCC4(CC3)CN[C@H](C(=O)O)C4)nc(N)n2)C(F)(F)F)n1 [Example 1bh, (S)-8-(2-amino-6-((R)-1-(4′-chloro-3′,5′-dimethyl-3-(3-methyl-1H-pyrazol-1-yl)-[1,1′-biphenyl]-4-yl)-2,2,2-trifluoroethoxy)pyrimidin-4-yl)-2,8-diazaspiro[4.5]decane-3-carboxylic acid] |
| < 50 nM | Cc1ccn(-c2cc(-c3ccc(Cl)c(C)c3)ccc2[C@@H](Oc2cc(N3CCC4(CC3)CN[C@H](C(=O)O)C4)nc(N)n2)C(F)(F)F)n1 [Example 1bd, (S)-8-(2-amino-6-((R)-1-(4′-chloro-3′-methyl-3-(3-methyl-1H-pyrazol-1-yl)-[1,1′-biphenyl]-4-yl)-2,2,2-trifluoroethoxy)pyrimidin-4-yl)-2,8-diazaspiro[4.5]decane-3-carboxylic acid] |
| < 50 nM | Cc1cc(Cl)cc(-c2ccc([C@@H](Oc3cc(N4CCC5(CC4)CN[C@H](C(=O)O)C5)nc(N)n3)C(F)(F)F)c(-n3ccc(C)n3)c2)c1 [Example 1an, (S)-8-(2-amino-6-((R)-1-(3′-chloro-5′-methyl-3-(3-methyl-1H-pyrazol-1-yl)-[1,1′-biphenyl]-4-yl)-2,2,2-trifluoroethoxy)pyrimidin-4-yl)-2,8-diazaspiro[4.5]decane-3-carboxylic acid] |
| 300 to 3000 nM | Nc1ccc(-c2cc(Cl)ccc2[C@@H](Oc2cc(N3CCC4(CC3)CNC(C(=O)O)C4)nc(N)n2)C(F)(F)F)cc1 (stereo partly drawn) [Example 34h, 8-(2-amino-6-((R)-1-(4′-amino-5-chloro-[1,1′-biphenyl]-2-yl)-2,2,2-trifluoroethoxy)pyrimidin-4-yl)-2,8-diazaspiro[4.5]decane-3-carboxylic acid] |
| 300 to 3000 nM | Cc1ccc(-c2ccc([C@@H](Oc3cc(N4CCC5(CC4)CN[C@H](C(=O)O)C5)nc(N)n3)C(F)(F)F)cc2)cc1F [Example 55cu, (S)-8-(2-amino-6-((R)-2,2,2-trifluoro-1-(3′-fluoro-4′-methyl-[1,1′-biphenyl]-4-yl)ethoxy)pyrimidin-4-yl)-2,8-diazaspiro[4.5]decane-3-carboxylic acid] |
| 3000 to 10000 nM | Cc1ccn(-c2cc(CN(C)C)ccc2[C@@H](Oc2cc(N3CCC4(CC3)CN[C@H](C(=O)O)C4)nc(N)n2)C(F)(F)F)n1 [Example 26, (S)-8-(2-amino-6-((R)-1-(4-((dimethylamino)methyl)-2-(3-methyl-H-pyrazol-1-yl)phenyl)-2,2,2-trifluoroethoxy)pyrimidin-4-yl)-2,8-diazaspiro[4.5]decane-3-carboxylic acid] |
| 50 to 300 nM | Nc1nc(O[C@H](c2ccc(Cl)cc2-c2cccc([N+](=O)[O-])c2)C(F)(F)F)cc(N2CCC3(CC2)CNC(C(=O)O)C3)n1 (stereo partly drawn) [Example 34e, 8-(2-amino-6-((R)-1-(5-chloro-3′-nitro-[1,1′-biphenyl]-2-yl)-2,2,2-trifluoroethoxy)pyrimidin-4-yl)-2,8-diazaspiro[4.5]decane-3-carboxylic acid] |
| < 50 nM | CCOC(=O)c1ccc([C@@H](Oc2cc(N3CCC4(CC3)CN[C@H](C(=O)O)C4)nc(N)n2)C(F)(F)F)c(-n2ccc(C)n2)c1 [Example 17, (S)-8-(2-amino-6-((R)-1-(4-(ethoxycarbonyl)-2-(3-methyl-H-pyrazol-1-yl)phenyl)-2,2,2-trifluoroethoxy)pyrimidin-4-yl)-2,8-diazaspiro[4.5]decane-3-carboxylic acid] |
| 50 to 300 nM | Cc1ccn(-c2cc(-c3cccc(C(N)=O)c3)ccc2[C@@H](Oc2cc(N3CCC4(CC3)CN[C@H](C(=O)O)C4)nc(N)n2)C(F)(F)F)n1 [Example 1be, (S)-8-(2-amino-6-((R)-1-(3′-carbamoyl-3-(3-methyl-1H-pyrazol-1-yl)-[1,1′-biphenyl]-4-yl)-2,2,2-trifluoroethoxy)pyrimidin-4-yl)-2,8-diazaspiro[4.5]decane-3-carboxylic acid] |
| 300 to 3000 nM | Cc1cccc(-c2ccc([C@@H](Oc3cc(N4CCC5(CC4)CN[C@H](C(=O)O)C5)nc(N)n3)C(F)(F)F)cc2)c1 [Example 55cx, (S)-8-(2-amino-6-((R)-2,2,2-trifluoro-1-(3′-methyl-[1,1′-biphenyl]-4-yl)ethoxy)pyrimidin-4-yl)-2,8-diazaspiro[4.5]decane-3-carboxylic acid] |
| 50 to 300 nM | Nc1nc(O[C@H](c2ccc(-c3ccc4[nH]c(=O)ccc4c3)cc2)C(F)(F)F)cc(N2CCC3(CC2)CN[C@H](C(=O)O)C3)n1 [Example 55t, (S)-8-(2-amino-6-((R)-2,2,2-trifluoro-1-(4-(2-oxo-1,2-dihydroquinolin-6-yl)phenyl)ethoxy)pyrimidin-4-yl)-2,8-diazaspiro[4.5]decane-3-carboxylic acid] |
| 50 to 300 nM | Nc1nc(O[C@H](c2ccc(-c3ccc4ncncc4c3)cc2)C(F)(F)F)cc(N2CCC3(CC2)CN[C@H](C(=O)O)C3)n1 [Example 55bk, (S)-8-(2-amino-6-((R)-2,2,2-trifluoro-1-(4-(quinazolin-6-yl)phenyl)ethoxy)pyrimidin-4-yl)-2,8-diazaspiro[4.5]decane-3-carboxylic acid] |
| 50 to 300 nM | CC(C)Oc1ccc(-c2cc(Cl)ccc2[C@@H](Oc2cc(N3CCC4(CC3)CN[C@H](C(=O)O)C4)nc(N)n2)C(F)(F)F)cc1Cl [Example 34ak, (S)-8-(2-amino-6-((R)-1-(3′,5-dichloro-4′-isopropoxy-[1,1′-biphenyl]-2-yl)-2,2,2-trifluoroethoxy)pyrimidin-4-yl)-2,8-diazaspiro[4.5]decane-3-carboxylic acid] |
| < 50 nM | C=CC(=O)NCc1cccc(-c2cc(Cl)ccc2[C@@H](Oc2cc(N3CCC4(CC3)CN[C@H](C(=O)O)C4)nc(N)n2)C(F)(F)F)c1 [Example 34aa, (S)-8-(6-((R)-1-(3′-(acrylamidomethyl)-5-chloro-[1,1′-biphenyl]-2-yl)-2,2,2-trifluoroethoxy)-2-aminopyrimidin-4-yl)-2,8-diazaspiro[4.5]decane-3-carboxylic acid] |
